Assay results as given in patent US20230270718A1, “METHODS OF TREATING DIABETIC KIDNEY DISEASE” (Chinook Therapeutics, Inc., priority 2020, published 2023).
Like-named read-outs stand apart in the source and are kept apart here.

Tests used:
DKD patients [1] = settings: enrichment period, cited from earlier work
DKD patients [2] = settings: cited from earlier work
DKD patients [3] = test: SONAR study, six week enrichment period, analyses by concomitant SGLT-2 inhibitor use; format: in vivo, human; set-up: key to UACR Final, Median / UACR Change, Median: UACR values in mg/g; settings: for B-type Natriuretic Peptide, change: geometric mean; for UACR Change, Mean (SD) / UACR Change, Median / UACR Final, Mean (SD) / UACR Final, Median: enrichment atrasentan
Description: A double-blind, randomized, placebo-controlled trial of DKD patients was conducted at 689 sites in 41 countries. The trial was conducted in two phases, an enrichment period and a double-blind treatment period. For the enrichment period, eligible patients were 18-85 years old with type 2 diabetes, an estimated glomerular filtration rate (eGFR) of 25-75 mL/min per 1.73 m^2 of body surface area, a urine albumin-to-creatinine ratio (UACR) of 300-5000 mg/g, a serum albumin of at least 25 g/L, a brain natriuretic peptide (BNP) concentration (level) of no more than 200 pg/mL, a serum potassium of at least 3 to 5 mmol/L, and systolic blood pressure of 110-180 mm Hg. The patients were required to receive a stable, recommended or maximally tolerated dose of an ACE inhibitor or ARB for at least four weeks prior to beginning the enrichment period. Patients also received a diuretic prior to beginning the enrichment period. Exclusion criteria included: a diagnosis of or previous hospital admission for heart failure, a history of severe peripheral or facial edema, diagnosis of type 1 diabetes, history of pulmonary hypertension, pulmonary fibrosis, or any lung diseases requiring oxygen therapy, and known non-diabetic kidney disease. See Heerspink et al., Lancet 393:1937-1947 (2019).
See Heerspink et al., Diabetes Obes Metab., 20:1829-1835 (2018). 42 responder patients and 9 patients in the non-responder group had used a SGLT-2 inhibitor at the start of enrichment. […] It was concluded that the UACR reduction was consistent in both groups.
Referring to the following Table 1, case-control matched cohort data from the study is shown.
SGLT-2 inhibitors included canagliflozin (N=6), empagliflozin (N=4), dapagliflozin (N=3), and luseogliflozin (N=1).
Change in body weight was used as a surrogate for fluid retention. See, e.g., Hoekman, et al., Clin. J. Am. Soc. Nephrol. 2013; 9(3):490-498. The change in BNP was monitored as an additional surrogate for fluid retention (each 1 kg increase in body weight during the enrichment period was associated with a 7.3% increase in BNP (p-value<0.001)).

[4] = atrasentan group, treatment period
[5] = of 1,325 patients, atrasentan 0.75 mg orally daily
[6] = of 1,325 responders, atrasentan 0.75 mg orally daily, median follow-up 2.2 years
[7] = Table 2, case-control matched cohort (N = 14 vs N = 42), enrichment period
[8] = Table 5, combination matched cohort (N = 14 vs N = 42), enrichment period
[9] = Table 6, combination (N = 14) vs all atrasentan alone subjects (N = 5093), enrichment period
[10] = No prior or concomitant SGLT2, N 4768
[11] = Prior and concomitant sGLT2, N 5

CCCCN(CCCC)C(=O)CN1C[C@H](c2ccc3c(c2)OCO3)[C@@H](C(=O)O)[C@@H]1c1ccc(OC)cc1 [Atrasentan, (2R,3R,4S)-4-(1,3-benzodioxol-5-yl)-1-[2-(dibutylamino)-2-oxoethyl]-2-(4-methoxyphenyl)pyrrolidine-3-carboxylic acid]
change in UACR from baseline (DKD patients [1]; non-responders, with concomitant SGLT-2 inhibitor use): +10.4% | change in UACR from baseline (DKD patients [1]; non-responders, without concomitant SGLT-2 inhibitor use): −1.3% | change in UACR from baseline (DKD patients [1]; responders, with concomitant SGLT-2 inhibitor use): −53.2% | change in UACR from baseline (DKD patients [1]; responders, without concomitant SGLT-2 inhibitor use): −48.8% | fluid retention and anemia adverse events (DKD patients [2]; atrasentan group compared with placebo group): more frequent | patients who died, number (DKD patients [2]; [4]): 58 patients | patients who died, percent (DKD patients [2]; [4]): 4.4% | hospital admission for heart failure, number of patients (DKD patients [2]; [5]): 47 patients | hospital admission for heart failure, percent of patients (DKD patients [2]; [5]): 3.5% | patients with a primary composite renal endpoint event (doubling of serum creatinine or ESRD), number (DKD patients [2]; [6]): 79 patients | patients with a primary composite renal endpoint event (doubling of serum creatinine or ESRD), percent (DKD patients [2]; [6]): 6.0% | Change in B-type Natriuretic Peptide (fluid retention) (DKD patients [3]; [7]): 6.9% | Change in Systolic Blood Pressure (renal efficacy) (DKD patients [3]; [7]): −9.2 mmHg | Change in body weight (fluid retention) (DKD patients [3]; [7]): 1.1 kg | Change in eGFR (renal efficacy) (DKD patients [3]; [7]): −0.6 ml/min/1.73 m^2 | Change in hematocrit (fluid retention) (DKD patients [3]; [7]): −2.5% | Change in hemoglobin (fluid retention) (DKD patients [3]; [7]): -0.9 g/dL | Body weight, change (DKD patients [3]; [8]): 0.6 kg | Systolic Blood Pressure, change (DKD patients [3]; [8]): −6.7 mmHg | eGFR, change (DKD patients [3]; [8]): −2.1 ml/min/1.73 m^2 | B-type Natriuretic Peptide, change (DKD patients [3]; [8]): 5.1% | Body weight, change (DKD patients [3]; [9]): 0.6 kg | Systolic Blood Pressure, change (DKD patients [3]; [9]): −4.7 mmHg | eGFR, change (DKD patients [3]; [9]): −1.0 ml/min/1.73 m^2 | B-type Natriuretic Peptide, change (DKD patients [3]; [9]): 8.3% | body weight increased by (DKD patients [3]; after six weeks, matched cohort, atrasentan alone): 0.6 kg | UACR Change, Mean (SD) (DKD patients [3]; Concomitant sGLT2 only, N 64): −469.92 (680.739) | UACR Change, Median (DKD patients [3]; Concomitant sGLT2 only, N 64): −311.00 | UACR Final, Mean (SD) (DKD patients [3]; Concomitant sGLT2 only, N 64): 809.47 (956.422) | UACR Final, Median (DKD patients [3]; Concomitant sGLT2 only, N 64): 437.50 | UACR Change, Mean (SD) (DKD patients [3]; [10]): −365.00 (1213.365) | UACR Change, Median (DKD patients [3]; [10]): −257.00 | UACR Final, Mean (SD) (DKD patients [3]; [10]): 891.95 (1352.518) | UACR Final, Median (DKD patients [3]; [10]): 540.16 | UACR Change, Mean (SD) (DKD patients [3]; Prior SGLT2 only, N 6): −97.80 (194.266) | UACR Change, Median (DKD patients [3]; Prior SGLT2 only, N 6): −101.00 | UACR Final, Mean (SD) (DKD patients [3]; Prior SGLT2 only, N 6): 1457.19 (1448.751) | UACR Final, Median (DKD patients [3]; Prior SGLT2 only, N 6): 939.56 | UACR Change, Mean (SD) (DKD patients [3]; [11]): −109.71 (366.699) | UACR Change, Median (DKD patients [3]; [11]): −261.00 | UACR Final, Mean (SD) (DKD patients [3]; [11]): 379.37 (556.751) | UACR Final, Median (DKD patients [3]; [11]): 136.00
